Data on 15 compounds can be found in patent US9127044B2, “Cyclic depsipeptides” (NOVARTIS AG, priority 2007, dated 2015).

For test [1], the target named is human kallikrein 7 (Homo sapiens, UniProt P49862). Kind of test: Kallikrein-7 inhibitory activity in vitro (fluorescence-quenched substrate). The class given is biochemical. As to the method:
(§1) IC50 for human kallikrein can be measured using the fluorescence-quenched substrate Ac-Glu-Asp(EDANS)-Lys-Pro-Ale-Leu-Phe^Arg-Leu-Gly-Lys(DABCYL)-Glu-NH2 (where ^ indicates the scissile bond, identified by MS analysis) which can be purchased from Biosyntan (Berlin, Germany). Enzymatic reactions are conducted in 50 mM sodium citrate buffer at pH 5.6 containing 150 mM NaCl and 0.05% (w/v) CHAPS. For the determination of IC50 values the assay is performed at room temperature in 384-well plates. All final assay volumes are 30 μl. Test compounds are dissolved in 90% (v/v) DMSO/water and diluted in water (containing 0.05% (w/v) CHAPS) to 3-times the desired assay concentration. The 11 final compound concentrations are: 0.3 nM, 1 nM, 3 nM, 10 nM, 30 nM, 100 nM, 300 nM, 1 μM, 3 μM, 10 μM and 30 μM. For each assay, 10 μl water/CHAPS (±test compound) are added per well, followed by 10 μl protease solution (diluted with 1.5× assay buffer). The protease concentration in final assay solution is 0.2 nM (according to the enzyme concentrations determined by the Bradford method). After 1 hour of incubation at room temperature, the reaction is started by addition of 10 μl substrate solution (substrate dissolved in 1.5× assay buffer, final concentration is 2 μM). […] The IC50 value is calculated from the plot of percentage of inhibition vs. inhibitor concentration using non-linear regression analysis software (XLfit, Vers. 4.0; ID Business Solution Ltd., Guildford, Surrey, UK).
The fluorescence-quenched substrate Ac-Glu-Asp(EDANS)-Lys-Pro-Ale-Leu-Phe^Arg-Leu-Gly-Lys(DABCYL)-Glu-NH2 (where ^ indicates the scissile bond, identified by MS analysis) is purchased from Biosyntan (Berlin, Germany) and kept as a 5 mM stock solution in DMSO at −20° C. All other chemicals are of analytical grade.
Enzymatic reactions are conducted in 50 mM sodium citrate buffer at pH 5.6 containing 150 mM NaCl and 0.05% (w/v) CHAPS.
All protein and peptide containing solutions are handled in siliconized tubes (Life Systems Design, Merenschwand, Switzerland). The compound solutions as well as the enzyme and the substrate solutions are transferred to the 384-well plates (black Cliniplate; cat. no. 95040020 Labsystems Oy, Finland) by means of a CyBi-Well 96-channel pipettor (CyBio AG, Jena, Germany).
(§2) For fluorescence intensity (FI) measurements an Ultra Evolution reader (TECAN, Maennedorf, Switzerland) is used. The instrument is equipped with a combination of a 350 nm (20 nm bandwidth) and a 500 nm (25 nm bandwidth) bandpass filter for fluorescence excitation and emission acquisition, respectively. To increase the signal:background ratio, an appropriate dichroic mirror is employed. The optical filters and the dichroic mirror are purchased from TECAN. The fluorophores in each well are excited by three flashes per measurement.
as §1, with “For” for “IC50 for human kallikrein can be measured using the fluorescence-quenched substrate Ac-Glu-Asp(EDANS)-Lys-Pro-Ale-Leu-Phe^Arg-Leu-Gly-Lys(DABCYL)-Glu-NH2 (where ^ indicates the scissile bond, identified by MS analysis) which can be purchased from Biosyntan (Berlin, Germany). Enzymatic reactions are conducted in 50 mM sodium citrate buffer at pH 5.6 containing 150 mM NaCl and 0.05% (w/v) CHAPS. For”, “volumes were” for “volumes are”, “concentration was” for “concentration is”

For test [2], the target named is T1, Human neutrophil elastase (Homo sapiens, UniProt P08246).
T1 construct: purchased Elastin Products Company, Inc. (EPC, Owensville, USA) SE563
T1 sequence (P08246 30-267): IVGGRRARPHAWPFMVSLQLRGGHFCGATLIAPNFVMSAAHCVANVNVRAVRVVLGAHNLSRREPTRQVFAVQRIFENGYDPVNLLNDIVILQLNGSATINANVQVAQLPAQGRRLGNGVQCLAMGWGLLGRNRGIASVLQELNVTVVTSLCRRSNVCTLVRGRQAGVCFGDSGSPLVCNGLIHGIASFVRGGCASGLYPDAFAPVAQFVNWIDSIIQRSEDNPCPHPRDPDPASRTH
Kind of test: HNE inhibitory activity in vitro (fluorescence-quenched substrate). The class given is biochemical. The protocol: Human neutrophil elastase (cat. no. SE563) is purchased from Elastin Products Company, Inc. (EPC, Owensville, USA). The dry powder (purity >95% stated by the supplier) was dissolved in 20 mM sodium acetate buffer, pH 5.0, 50% (v/v) glycerol, and frozen at −80° C. in aliquots.
The fluorescence-quenched substrate (DABCYL-Ser-Glu-Val^Asn-Leu-Asp-Ala-Glu-Phe-EDANS, where ^ indicates the scissile bond, identified by MS analysis) was purchased from Bachem AG (Bubendorf, Switzerland), and kept as a 5 mM stock solution in DMSO at −20° C. All other chemicals were of analytical grade.
Enzymatic reactions were conducted in 100 mM Tris/HCl buffer at pH 7.5, containing 500 mM NaCl, and 0.05% (w/v) CHAPS.
All protein and peptide containing solutions are handled in siliconized tubes (Life Systems Design, Merenschwand, Switzerland).
The compound solutions as well as the enzyme and the substrate solutions are transferred to the 384-well plates (black Cliniplate; cat. no. 95040020 Labsystems Oy, Finland) by means of a CyBi-Well 96-channel pipettor (CyBio AG, Jena, Germany).
as §2

The test system of test [3] is Crl:NMRI mice. Kind of test: Anti-inflammatory activity in murine model of allergic contact dermatitis (ACD), oxazolone. The test is classed as in vivo. The protocol: Method: Crl:NMRI mice were sensitized on the shaved abdomen with 50 μl of 2% oxazolone on day 1 and challenged with 10 μl oxazolone on the inner surface of the right ear on day 8. The unchallenged left ears served as normal controls and dermatitis was evaluated from the difference in auricular weight (taken as a measure of inflammatory swelling) on day 9. The animals were treated topically with 10 μl test compound or the solvent only 30 min after the challenge. The efficacy of the treatment was calculated as the percentage inhibition of inflammatory auricular swelling relative to animals treated with the vehicle alone.

Setting [4] is: Table 14, concentration of test compound 10 mM.
The mark [5] stands for this setting: Table 14, concentration of test compound 30 mM.
Setting [6] is: Table 11, read-out: hKallikrein7 IC 50.
The mark [7] stands for this setting: Table 11, read-out: human neutrophile elastase IC 50.

Where two headings read alike, the source gives them in different places. *1 amine or outer side, *2 acyl side, *3 side chain or, on linkers, in order; H or OH if unused. Where a SMILES comes first, the peptide text is derived from it. Bridges are numbered along the chain shown (N, C = ends). [ ]: non-standard residue; d: D form. The star is where a group is joined. ξ: configuration not given here. X1 = O=C([C@@H]1CC[C@H](O)N1[*:1])[*:2]; NMeY = CN[C@@H](Cc1ccc(O)cc1)C(=O)O; Butanoyl(2ξ-Me) = CCC(C)C(=O)*; Ile(3ξ) = CCC(C)[C@H](N)C(=O)O; Isovaleryl = CC(C)CC(=O)*; Isobutyryl = CC(C)C(=O)*

human kallikrein 7, sequence (P49862 30-253): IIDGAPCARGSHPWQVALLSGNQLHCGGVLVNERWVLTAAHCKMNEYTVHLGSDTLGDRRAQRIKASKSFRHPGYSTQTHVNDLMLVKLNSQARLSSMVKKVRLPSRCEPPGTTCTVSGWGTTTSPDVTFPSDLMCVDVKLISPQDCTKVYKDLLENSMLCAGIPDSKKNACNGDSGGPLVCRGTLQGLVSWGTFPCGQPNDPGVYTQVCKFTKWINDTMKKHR

Consider `CCC(C)C1NC(=O)C(Cc2ccc(O)cc2)N(C)C(=O)C(C(C)CC)N2C(=O)C(CCC2OCc2ccccc2)NC(=O)C(CC(C)C)NC(=O)C(NC(=O)C(CCC(N)=O)NC(=O)C(C)C)C(C)OC1=O` (centres unmarked) [example 9], for which the IC50 in test [1] (hKallikrein7 IC 50, Table 11) came to 2 nM; in test [2], 3 nM. Besides, the “% Inhibition of inflammatory swelling” value in test [3] (setting [4]) stood at 42%; in test [3] (setting [5]), 38%.
Turning to `CCOC1CCC2NC(=O)C(CC(C)C)NC(=O)C(NC(=O)C(CCC(N)=O)NC(=O)C(C)C)C(C)OC(=O)C(C(C)CC)NC(=O)C(Cc3ccc(O)cc3)N(C)C(=O)C(C(C)CC)N1C2=O` (centres unmarked) [example 10], the IC50 came out at 3.5 nM in test [1] (hKallikrein7 IC 50, Table 11) and 9 nM in test [2]. Moreover, the “% Inhibition of inflammatory swelling” value in test [3] (setting [4]) came out at 22%; in test [3] (setting [5]), 25%.
As for `CCC(C)[C@@H]1NC(=O)[C@H](Cc2ccc(OCC(=O)NCCOCCOCC(=O)OC(C)(C)C)cc2)N(C)C(=O)[C@H](C(C)CC)N2CCCC(NC(=O)[C@H](CC(C)C)NC(=O)[C@@H](NC(=O)[C@H](CCC(N)=O)NC(=O)C(C)C)[C@@H](C)OC1=O)C2=O` (some centres unmarked) [example 44], the IC50 in test [1] (setting [6]) stood at 3.5 nM; in test [2] (setting [7]), 9 nM.
Regarding `CCCOC1CCC2NC(=O)C(CC(C)C)NC(=O)C(NC(=O)C(CCC(N)=O)NC(=O)C(C)C)C(C)OC(=O)C(C(C)CC)NC(=O)C(Cc3ccc(OCc4cn(CCOCCOCCN=[N+]=[N-])nn4)cc3)N(C)C(=O)C(C(C)CC)N1C2=O` (centres unmarked) [example 45], the IC50 in test [1] (setting [6]) was 2 nM; in test [2] (setting [7]) it was 3 nM.
In the case of `CCC(C)[C@@H]1NC(=O)[C@H](Cc2ccc(O)cc2)N(C)C(=O)[C@H](C(C)CC)NC(=O)[C@@H]2CC[C@H](O)N2C(=O)[C@H](CC(C)C)NC(=O)[C@@H](NC(=O)[C@H](CCC(N)=O)NC(=O)C(C)C)[C@@H](C)OC1=O` (some centres unmarked) [example 46] (Isobutyryl-QTL[X1][Ile(3ξ)][NMeY][Ile(3ξ)]; ester 2-C), the IC50 in test [1] (hKallikrein7 IC 50, Table 11) stood at 10 nM; in test [2], 100 nM.
The like results for `CCC(C)[C@@H]1NC(=O)[C@H](Cc2ccc(O)cc2)N(C)C(=O)[C@H](C(C)CC)N2C(=O)C(CC[C@@H]2O)NC(=O)[C@H](CC(C)C)NC(=O)[C@@H](NC(=O)[C@H](CCC(=O)O)NC(=O)C(C)C)[C@@H](C)OC1=O` (some centres unmarked) [example 47] were, in that order, 100 nM and 10 nM.
Regarding `CCC(C)C(=O)N[C@@H](CCC(N)=O)C(=O)N[C@@H]1C(=O)N[C@@H](CC(C)C)C(=O)NC2CC[C@H](O)N(C2=O)[C@@H](C(C)CC)C(=O)N(C)[C@@H](Cc2ccc(O)cc2)C(=O)N[C@@H](C(C)CC)C(=O)O[C@@H]1C` (some centres unmarked) [formula III], the IC50 in test [1] (hKallikrein7 IC50, Table 10) worked out at 0.4 nM; in test [1] (hKallikrein7 IC 50, Table 11), 0.4 nM; in test [2], 10 nM.
As to `CCC(C)C(=O)N[C@@H](CCC(N)=O)C(=O)N[C@@H]1C(=O)N[C@@H](CC(C)C)C(=O)N[C@H]2CC=CN(C2=O)[C@H](C(C)CC)C(=O)N(C)[C@@H](Cc2ccc(O)cc2)C(=O)N[C@@H](C(C)CC)C(=O)O[C@@H]1C` (some centres unmarked) [formula IV], the IC50 in test [1] (hKallikrein7 IC 50, Table 11) came out at 5 nM; in test [2], 70 nM.
For `CC(C)CC(=O)N[C@@H](CCC(N)=O)C(=O)N[C@@H]1C(=O)N[C@@H](CC(C)C)C(=O)N2CCC[C@@H]2C(=O)N[C@@H](Cc2ccccc2)C(=O)N(C)[C@@H](Cc2ccc(O)cc2)C(=O)N[C@@H](C(C)C)C(=O)O[C@@H]1C` [formula IX] (Isovaleryl-QTL[dP]F[NMeY]V; ester 2-C), the values for the IC50 in test [1] (setting [6]) and in test [2] (setting [7]) were 1 nM and 10 nM, respectively.
As for `CCC(C)[C@@H]1NC(=O)[C@H](Cc2ccc(O)cc2)N(C)C(=O)[C@@H](C(C)CC)N2C=CC[C@H](NC(=O)[C@H](CC(C)C)NC(=O)[C@@H](NC(=O)[C@H](CCC(N)=O)NC(=O)C(C)C)[C@@H](C)OC1=O)C2=O` (some centres unmarked) [formula V], the IC50 was 6 nM in test [1] (hKallikrein7 IC 50, Table 11) and 60 nM in test [2].
For `CCC(C)[C@@H]1NC(=O)[C@H](Cc2ccc(O)cc2)N(C)C(=O)[C@H](C(C)CC)N2C(=O)C(CC[C@@H]2O)NC(=O)[C@H](CC(C)C)NC(=O)[C@@H](NC(=O)[C@H](CCC(N)=O)NC(=O)c2ccccc2)[C@@H](C)OC1=O` (some centres unmarked) [formula XIII], the IC50 in test [1] stood at 0.7 nM; in test [2], 30 nM.
For the compound `CCC(C)[C@@H]1NC(=O)[C@H](Cc2ccc(O)cc2)N(C)C(=O)[C@H](C(C)CC)N2C(=O)C(CC[C@@H]2O)NC(=O)[C@H](CC(C)C)NC(=O)[C@@H](NC(=O)[C@H](CCC(N)=O)NC(C)=O)[C@@H](C)OC1=O` (some centres unmarked) [formula XII], the IC50 in test [1] (hKallikrein7 IC 50, Table 11) came out at 4 nM; in test [2] it was 50 nM.
As to `CCC(C)C(=O)N[C@@H](CCC(N)=O)C(=O)N[C@@H]1C(=O)N[C@@H](CC(C)C)C(=O)N2CCC[C@H]2C(=O)N[C@@H](C(C)CC)C(=O)N(C)[C@@H](Cc2ccc(O)cc2)C(=O)N[C@@H](C(C)CC)C(=O)O[C@@H]1C` (some centres unmarked) [formula XIV] ({Butanoyl(2ξ-Me)}-QTLP[Ile(3ξ)][NMeY][Ile(3ξ)]; ester 2-C), the IC50 is 200 nM in test [1] (hKallikrein7 IC 50, Table 11) and 2700 nM in test [2].
`CCC(C)[C@@H]1NC(=O)[C@H](Cc2ccc(O)cc2)N(C)C(=O)[C@H](Cc2ccccc2)N2C(=O)C(CC[C@@H]2O)NC(=O)[C@H](CC(C)C)NC(=O)[C@@H](NC(=O)[C@H](CCCNC(N)=O)NC(=O)C(C)C)[C@@H](C)OC1=O` (some centres unmarked) [formula XV]: the IC50 in test [1] (hKallikrein7 IC 50, Table 11) was found to be 4 nM; in test [2], 80 nM.
`CC(C)CC(=O)N[C@@H](CCC(N)=O)C(=O)N[C@@H]1C(=O)N[C@@H](CC(C)C)C(=O)N2CCC[C@@H]2C(=O)N[C@@H](Cc2ccccc2)C(=O)N[C@@H](Cc2ccc(O)cc2)C(=O)N[C@@H](C(C)C)C(=O)O[C@@H]1C` [formula X] (Isovaleryl-QTL[dP]FYV; ester 2-C): the figures for the IC50 in test [1] (setting [6]) and in test [2] (setting [7]) were 20 nM and 200 nM, respectively.
